Laboratory results reported in patent US20240207427A1, “SELECTIVE DRUG RELEASE FROM INTERNALIZED CONJUGATES OF BIOLOGICALLY ACTIVE COMPOUNDS” (priority 2021, published 2024).
Where two headings read alike, the source gives them in different places.

Experiments:
Format in all cases: cell-based
[1] = system: renal carcinoma cells (786-O); experiment: In vitro potency (CellTiter-Glo, 96 h), 786-O; conditions: Homo sapiens, 786-0, 96 h, CPT free drugs, renal carcinoma cells 786-O, 96 h, CellTiter-Glo
Description: (§1) In vitro potency was assessed on multiple cancer cell lines. All cell lines were authenticated by STR profiling at IDEXX Bioresearch and cultured for no more than 2 months after resuscitation. Cells cultured in log-phase growth were seeded for 24 hours in 96-well plates containing […] RPMI 1640 supplemented with 20% FBS. Serial dilutions of antibody-drug conjugates in cell culture media were prepared at 4× working concentrations, and 50 μL of each dilution was added to the 96-well plates. Following addition of test articles, cells were incubated with test articles for 4 days at 37 0° C. After 96 hours, growth inhibition was assessed by CellTiterGlo® (Promega, Madison, WI) and luminescence was measured on a plate reader.
(§2) In Table 7, IC50 values for ADCs are given in ng/mL. Cell viability was determined by CellTiter-Glo staining after 96 h exposure to ADC. ND=Not Determined. Ag2 is an antibody targeting a ubiquitous and readily internalizable antigen. The cancer cell lines tested are renal carcinoma cells (786-0), melanoma cells (A2058), pancreatic cancer cells (BxPC3), non-small-cell lung cancer cells (Calu1), anaplastic large cell lymphoma cells (DEL, DELBVR, Karpas299), Hodgkin's lymphoma cells (L540cy), (Ls174T), breast cancer cells (MDA-MB-231), acute myeloid leukemia cells (MOLM-13), and B-lymphocyte cancer cells (SU-DHL4).
as §1, with “FBS.” for “FBS. Serial dilutions of antibody-drug conjugates in cell culture media were prepared at 4× working concentrations, and 50 μL of each dilution was added to the 96-well plates.”
(§3) Cell viability was determined by CellTiter-Glo staining after 96 h exposure to the compound. ND=Not Determined. The cancer cell lines tested are renal carcinoma cells (786-0), melanoma cells (A2058), pancreatic cancer cells (BxPC3), non-small-cell lung cancer cells (Calu1), anaplastic large cell lymphoma cells (DEL, DELBVR, Karpas299), Hodgkin's lymphoma cells (L540cy), (Ls 174T), breast cancer cells (MDA-MB-231), acute myeloid leukemia cells (MOLM-13), B-lymphocyte cancer cells (SU-DHL4), multiple myeloma cells (MM.1R), (U266), and melanoma cells (SK-MEL-5).
as §1, with “37°” for “37 0°”
(§4) In the following Tables IC50 values for ADCs and CPT free drugs are given in ng/mL and nmol/L concentrations. Cell viability was determined by CellTiter-Glo staining after 96 h exposure to ADC or CPT free drug.
(§5) Cell viability was determined by CellTiter-Glo staining after 96 h exposure to ADC. ND=Not Determined.

[2] = system: B-lymphocyte cancer cells (SU-DHL4); experiment: In vitro potency (CellTiter-Glo, 96 h), SU-DHL-4; conditions: Homo sapiens, SU-DHL-4, 96 h, CPT free drugs, B-lymphocyte cancer cells SU-DHL4, 96 h, CellTiter-Glo
Description: as §1, §2
as §1, with “FBS.” for “FBS. Serial dilutions of antibody-drug conjugates in cell culture media were prepared at 4× working concentrations, and 50 μL of each dilution was added to the 96-well plates.”
as §3
as §1, with “37°” for “37 0°”
as §4, §5

[3] = system: Hodgkin's lymphoma cells (L540cy); experiment: In vitro potency (CellTiter-Glo, 96 h), L540cy
Description: as §1, §2
as §1, with “FBS.” for “FBS. Serial dilutions of antibody-drug conjugates in cell culture media were prepared at 4× working concentrations, and 50 μL of each dilution was added to the 96-well plates.”
as §3
as §1, with “37°” for “37 0°”
as §4, §5

[4] = system: anaplastic large cell lymphoma cells (DELBVR); experiment: In vitro potency (CellTiter-Glo, 96 h), DELBVR
Description: as §1, §2
as §1, with “FBS.” for “FBS. Serial dilutions of antibody-drug conjugates in cell culture media were prepared at 4× working concentrations, and 50 μL of each dilution was added to the 96-well plates.”
as §3
as §1, with “37°” for “37 0°”
as §4, §5

[5] = system: pancreatic cancer cells (BxPC3); experiment: In vitro potency (CellTiter-Glo, 96 h), BxPC3; conditions: Homo sapiens, BXPC-3, 96 h, CPT free drugs, pancreatic cancer cells BxPC3, 96 h, CellTiter-Glo
Description: as §1, §2
as §1, with “FBS.” for “FBS. Serial dilutions of antibody-drug conjugates in cell culture media were prepared at 4× working concentrations, and 50 μL of each dilution was added to the 96-well plates.”
as §3
as §1, with “37°” for “37 0°”
as §4, §5

[6] = system: anaplastic large cell lymphoma cells (DEL); experiment: In vitro potency (CellTiter-Glo, 96 h), DEL
Description: as §1, §2
as §1, with “FBS.” for “FBS. Serial dilutions of antibody-drug conjugates in cell culture media were prepared at 4× working concentrations, and 50 μL of each dilution was added to the 96-well plates.”
as §3
as §1, with “37°” for “37 0°”
as §4, §5

[7] = system: acute myeloid leukemia cells (MOLM-13); experiment: In vitro potency (CellTiter-Glo, 96 h), MOLM-13; conditions: Homo sapiens, MOLM-13, 96 h, CPT free drugs, acute myeloid leukemia cells MOLM-13, 96 h, CellTiter-Glo
Description: as §1, §2
as §1, with “FBS.” for “FBS. Serial dilutions of antibody-drug conjugates in cell culture media were prepared at 4× working concentrations, and 50 μL of each dilution was added to the 96-well plates.”
as §3
as §1, with “37°” for “37 0°”
as §4, §5

[8] = system: anaplastic large cell lymphoma cells (Karpas299); experiment: In vitro potency (CellTiter-Glo, 96 h), Karpas299; conditions: Homo sapiens, KARPAS-299, 96 h, CPT free drugs, anaplastic large cell lymphoma cells Karpas299, 96 h, CellTiter-Glo
Description: as §1, §2
as §1, with “FBS.” for “FBS. Serial dilutions of antibody-drug conjugates in cell culture media were prepared at 4× working concentrations, and 50 μL of each dilution was added to the 96-well plates.”
as §3
as §1, with “37°” for “37 0°”
as §4, §5

[9] = system: breast cancer cells (MDA-MB-231); experiment: In vitro potency (CellTiter-Glo, 96 h), MDA-MB-231; conditions: Homo sapiens, MDA-MB-231, 96 h, CPT free drugs, breast cancer cells MDA-MB-231, 96 h, CellTiter-Glo
Description: as §1, §2
as §1, with “FBS.” for “FBS. Serial dilutions of antibody-drug conjugates in cell culture media were prepared at 4× working concentrations, and 50 μL of each dilution was added to the 96-well plates.”
as §3
as §1, with “37°” for “37 0°”
as §4, §5

Ls174T cells = experiment: In vitro potency (CellTiter-Glo, 96 h), Ls174T; conditions: Homo sapiens, LS174T, 96 h, CPT free drugs, Ls174T cells, 96 h, CellTiter-Glo
Description: as §1, §2
as §1, with “FBS.” for “FBS. Serial dilutions of antibody-drug conjugates in cell culture media were prepared at 4× working concentrations, and 50 μL of each dilution was added to the 96-well plates.”
as §3
as §1, with “37°” for “37 0°”
as §4, §5

[10] = read-out: SU-DHL-4 IC50, Table 29
[11] = read-out: L540cy IC50, Table 29, CPT free drugs, Hodgkin's lymphoma cells L540cy, CellTiter-Glo
[12] = read-out: DELBVR IC50, Table 29, CPT free drugs, anaplastic large cell lymphoma cells DELBVR, CellTiter-Glo
[13] = read-out: DEL IC50, Table 29, CPT free drugs, anaplastic large cell lymphoma cells DEL, CellTiter-Glo
[14] = read-out: MOLM-13 IC50, Table 29
[15] = read-out: Karpas299 IC50, Table 29
[16] = read-out: MDAMB231 IC50, Table 29
[17] = read-out: Ls174T IC50, Table 29
[18] = read-out: SU-DHL-4 IC50, Table 28
[19] = read-out: L540cy IC50, Table 28, CPT free drugs, Hodgkin's lymphoma cells L540cy, CellTiter-Glo
[20] = read-out: DELBVR IC50, Table 28, CPT free drugs, anaplastic large cell lymphoma cells DELBVR, CellTiter-Glo
[21] = read-out: MOLM-13 IC50, Table 28
[22] = read-out: Karpas299 IC50, Table 28
[23] = read-out: MDAMB231 IC50, Table 28
[24] = read-out: Ls174T IC50, Table 28

Row | Compound | IC50 ([1]; read-out: 786-O IC50, Table 29) | IC50 [2, 10] | IC50 [3, 11] | IC50 [4, 12] | IC50 ([5]; read-out: BxPC3 IC50, Table 29) | IC50 [6, 13] | IC50 [7, 14] | IC50 [8, 15] | IC50 [9, 16] | IC50 (Ls174T cells; [17]) | IC50 ([1]; read-out: 786-O IC50, Table 28) | IC50 [2, 18] | IC50 [3, 19] | IC50 [4, 20] | IC50 ([5]; read-out: BxPC3 IC50, Table 28) | IC50 ([6]; read-out: DEL IC50, Table 28, CPT free drugs, anaplastic large cell lymphoma cells DEL, CellTiter-Glo) | IC50 [7, 21] | IC50 [8, 22] | IC50 [9, 23] | IC50 (Ls174T cells; [24])
1 | CC[C@@]1(O)C(=O)OCc2c1cc1n(c2=O)Cc2c-1nc1cc3c(cc1c2CNC1CCNCC1)OCO3 [Compound 8e] | 104 nM | 25 nM | 36 nM | 10 nM | 62 nM | 7 nM | 89 nM | 72 nM | 102 nM | 109 nM |  |  |  |  |  |  |  |  |  | 
2 | CC[C@@]1(O)C(=O)OCc2c1cc1n(c2=O)Cc2c-1nc1cc3c(cc1c2CNCCCN1CCN(C)CC1)OCO3 [Compound 7h] | 44 nM | 21 nM | 23 nM | 6 nM | 43 nM | 5 nM | 93 nM | 57 nM | 67 nM | 40 nM |  |  |  |  |  |  |  |  |  | 
3 | C=Cc1c(C)c(F)cc2nc3c(c(CN)c12)Cn1c-3cc2c(c1=O)COC(=O)[C@]2(O)CC [Compound 2am, (S)-11-(aminomethyl)-4-ethyl-8-fluoro-4-hydroxy-9-methyl-10-vinyl-1,12-dihydro-14H-pyrano[3′,4′:6,7]indolizino[1,2-b]quinoline-3,14(4H)-dione] |  |  |  |  |  |  |  |  |  |  | 2 nM | 1 nM | 1 nM | 0.3 nM | 4 nM | 0.3 nM | 2 nM | 2 nM | 5 nM | 5 nM
4 | CC[C@@]1(O)C(=O)OCc2c1cc1n(c2=O)Cc2c-1nc1cc3c(cc1c2CNC(C)=O)OCO3 [Compound 12b] |  |  |  |  |  |  |  |  |  |  | 12 nM | 1 nM | 4 nM | 1 nM | 11 nM |  | 3 nM | 8 nM | 28 nM | 22 nM
5 | CC[C@@]1(O)C(=O)OCc2c1cc1n(c2=O)Cc2c-1nc1cc3c(cc1c2CNC1CCN(C)CC1)OCO3 [Compound 7w] | 15 nM | 6 nM | 6 nM | 2 nM | 13 nM | 2 nM | 26 nM | 8 nM | 26 nM | 16 nM |  |  |  |  |  |  |  |  |  | 
